Measured values taken from PubChem BioAssay AID2060502 (Molecular Pharmacology Branch, DTP, NCI, 2025).

System: 885724-159-R-J1-PDC complex spheroid viability
Experiment: Anticancer human tumor 885724-159-R-J1-PDC patient-derived pancreatic adenocarcinoma cell line growth inhibition [GQUAD]
Details: for IC50: curve of first compound; for viability, T/C: stronger effect = lower value
In short: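 Tumor cells were grown as complex spheroids with HUVEC endothelial cells and mesenchymal stem cells as stroma. G-quadruplex stabilizers were combined with targeted agents over half-log dilutions from near the clinical Cmax, or from 10 microM.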

[1] = second compound 0.0316 µM, first compound 0.0316 µM
[2] = second compound 0.0316 µM, first compound 0.316 µM
[3] = second compound 0.1 µM, first compound 0.0316 µM
[4] = second compound 0.1 µM, first compound 0.316 µM
[5] = second compound 0.316 µM, first compound 0.0316 µM
[6] = second compound 0.316 µM, first compound 0.316 µM
[7] = second compound 1 µM, first compound 0.0316 µM
[8] = second compound 1 µM, first compound 0.316 µM
[9] = second compound 3.16 µM, first compound 0.0316 µM
[10] = second compound 3.16 µM, first compound 0.316 µM
[11] = second compound 10 µM, first compound 0.0316 µM
[12] = second compound 10 µM, first compound 0.316 µM
[13] = second compound 0.0316 µM, first compound 0.1 µM
[14] = second compound 0.0316 µM, first compound 1 µM
[15] = second compound 0.0316 µM, first compound 3.16 µM
[16] = second compound 0.0316 µM, first compound 10 µM
[17] = second compound 0.1 µM, first compound 0.1 µM
[18] = second compound 0.1 µM, first compound 1 µM
[19] = second compound 0.1 µM, first compound 3.16 µM
[20] = second compound 0.1 µM, first compound 10 µM
[21] = second compound 0.316 µM, first compound 0.1 µM
[22] = second compound 0.316 µM, first compound 1 µM
[23] = second compound 0.316 µM, first compound 3.16 µM
[24] = second compound 0.316 µM, first compound 10 µM
[25] = second compound 1 µM, first compound 0.1 µM
[26] = second compound 1 µM, first compound 1 µM
[27] = second compound 1 µM, first compound 3.16 µM
[28] = second compound 1 µM, first compound 10 µM
[29] = second compound 3.16 µM, first compound 0.1 µM
[30] = second compound 3.16 µM, first compound 1 µM
[31] = second compound 3.16 µM, first compound 3.16 µM
[32] = second compound 3.16 µM, first compound 10 µM
[33] = second compound 10 µM, first compound 0.1 µM
[34] = second compound 10 µM, first compound 1 µM
[35] = second compound 10 µM, first compound 3.16 µM
[36] = second compound 10 µM, first compound 10 µM
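Also: spheroids exposed to agents for seven days before readout.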
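For viability, T/C in this document: percent of vehicle control viability where 100% = DMSO wells.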

For `CC[C@@]1(O)C(=O)OCc2c1cc1n(c2=O)Cc2cc3c(CN(C)C)c(O)ccc3nc2-1` + Cc1[nH]c2ccc(F)cc2c1-c1nc2c3cccnc3c3ncccc3c2[nH]1, the IC50 (second compound 0.0316 µM) was greater than 0.316 µM, the IC50 (second compound 0.1 µM) was greater than 0.316 µM and the IC50 (second compound 0.316 µM) was greater than 0.316 µM. It also gave an IC50 (second compound 1 µM) greater than 0.316 µM, an IC50 (second compound 3.16 µM) of less than 0.000999 µM and an IC50 (second compound 10 µM) greater than 0.316 µM. It also gave a viability, T/C (second compound 0.0316 µM, first compound 0.000999 µM) of 90.3%, a viability, T/C (second compound 0.0316 µM, first compound 0.00316 µM) of 114% and a viability, T/C (second compound 0.0316 µM, first compound 0.00999 µM) of 98.9%. The viability, T/C [1] was 97.6%, the viability, T/C (second compound 0.0316 µM, first compound 0.0999 µM) was 84.2% and the viability, T/C [2] was 68.7%. The viability, T/C (second compound 0.1 µM, first compound 0.000999 µM) was 98.9%, the viability, T/C (second compound 0.1 µM, first compound 0.00316 µM) was 104% and the viability, T/C (second compound 0.1 µM, first compound 0.00999 µM) was 98%. For the same compound, the viability, T/C [3] was 93.6%, the viability, T/C (second compound 0.1 µM, first compound 0.0999 µM) was 87.8% and the viability, T/C [4] was 74.6%. The viability, T/C (second compound 0.316 µM, first compound 0.000999 µM) was 85.5%, the viability, T/C (second compound 0.316 µM, first compound 0.00316 µM) was 83.9% and the viability, T/C (second compound 0.316 µM, first compound 0.00999 µM) was 96.7%. For the same compound, the viability, T/C [5] was 78.2%, the viability, T/C (second compound 0.316 µM, first compound 0.0999 µM) was 80.8% and the viability, T/C [6] was 69.2%. It also gave a viability, T/C (second compound 1 µM, first compound 0.000999 µM) of 80.8%, a viability, T/C (second compound 1 µM, first compound 0.00316 µM) of 75.7% and a viability, T/C (second compound 1 µM, first compound 0.00999 µM) of 67.7%. The viability, T/C [7] was 75.5%, the viability, T/C (second compound 1 µM, first compound 0.0999 µM) was 67% and the viability, T/C [8] was 60.5%. The viability, T/C (second compound 3.16 µM, first compound 0.000999 µM) was 42.8%, the viability, T/C (second compound 3.16 µM, first compound 0.00316 µM) was 30.9% and the viability, T/C (second compound 3.16 µM, first compound 0.00999 µM) was 35.1%. It also gave a viability, T/C [9] of 34.2%, a viability, T/C (second compound 3.16 µM, first compound 0.0999 µM) of 33.3% and a viability, T/C [10] of 23.6%. The viability, T/C (second compound 10 µM, first compound 0.000999 µM) was 64.1%, the viability, T/C (second compound 10 µM, first compound 0.00316 µM) was 72.6% and the viability, T/C (second compound 10 µM, first compound 0.00999 µM) was 70.2%. It also gave a viability, T/C [11] of 68.3%, a viability, T/C (second compound 10 µM, first compound 0.0999 µM) of 63.4% and a viability, T/C [12] of 49.1%.

With `C=CC(=O)N1CCN(c2nc(=O)n(-c3c(C)ccnc3C(C)C)c3nc(-c4c(O)cccc4F)c(F)cc23)C(C)C1` (stereo unspecified) + Cc1cnc(CNC(=O)c2c(=O)c3ccc(N4CCCN(C)CC4)nc3n3c2sc2ccccc23)cn1 the IC50 (second compound 0.0316 µM) was greater than 10 µM, the IC50 (second compound 0.1 µM) was greater than 10 µM and the IC50 (second compound 0.316 µM) was greater than 10 µM. For the same compound, the IC50 (second compound 1 µM) was greater than 10 µM, the IC50 (second compound 3.16 µM) was greater than 10 µM and the IC50 (second compound 10 µM) was greater than 10 µM. It also gave a viability, T/C [1] of 107%, a viability, T/C [13] of 114% and a viability, T/C [2] of 115%. It also gave a viability, T/C [14] of 107%, a viability, T/C [15] of 100% and a viability, T/C [16] of 91.5%. For the same compound, the viability, T/C [3] was 101%, the viability, T/C [17] was 102% and the viability, T/C [4] was 107%. For the same compound, the viability, T/C [18] was 124%, the viability, T/C [19] was 125% and the viability, T/C [20] was 111%. It also gave a viability, T/C [5] of 103%, a viability, T/C [21] of 106% and a viability, T/C [6] of 110%. It also gave a viability, T/C [22] of 89.2%, a viability, T/C [23] of 124% and a viability, T/C [24] of 96%. It also gave a viability, T/C [7] of 86.5%, a viability, T/C [25] of 91% and a viability, T/C [8] of 88.2%. The viability, T/C [26] was 91.6%, the viability, T/C [27] was 100% and the viability, T/C [28] was 81%. For the same compound, the viability, T/C [9] was 74.5%, the viability, T/C [29] was 84% and the viability, T/C [10] was 89.3%. The viability, T/C [30] was 81.4%, the viability, T/C [31] was 89.4% and the viability, T/C [32] was 76.8%. The viability, T/C [11] was 74.4%, the viability, T/C [33] was 74% and the viability, T/C [12] was 74.7%. It also gave a viability, T/C [34] of 83.4%, a viability, T/C [35] of 78% and a viability, T/C [36] of 68.5%.

Work on `O=C(c1cc(Cc2n[nH]c(=O)c3ccccc23)ccc1F)N1CCN(C(=O)C2CC2)CC1` + Cc1[nH]c2ccc(F)cc2c1-c1nc2c3cccnc3c3ncccc3c2[nH]1 yielded an IC50 (second compound 0.0316 µM) greater than 10 µM, an IC50 (second compound 0.1 µM) greater than 10 µM and an IC50 (second compound 0.316 µM) greater than 10 µM. For the same compound, the IC50 (second compound 1 µM) was greater than 10 µM, the IC50 (second compound 3.16 µM) was less than 0.0316 µM and the IC50 (second compound 10 µM) was greater than 10 µM. The viability, T/C [1] was 99.1%, the viability, T/C [13] was 94.3% and the viability, T/C [2] was 103%. The viability, T/C [14] was 84.5%, the viability, T/C [15] was 89.2% and the viability, T/C [16] was 87.9%. For the same compound, the viability, T/C [3] was 102%, the viability, T/C [17] was 111% and the viability, T/C [4] was 92.2%. It also gave a viability, T/C [18] of 92.6%, a viability, T/C [19] of 103% and a viability, T/C [20] of 78.1%. It also gave a viability, T/C [5] of 85.5%, a viability, T/C [21] of 88.7% and a viability, T/C [6] of 90.3%. For the same compound, the viability, T/C [22] was 79.1%, the viability, T/C [23] was 96.2% and the viability, T/C [24] was 72.9%. It also gave a viability, T/C [7] of 71.1%, a viability, T/C [25] of 71.1% and a viability, T/C [8] of 77.2%. It also gave a viability, T/C [26] of 65.3%, a viability, T/C [27] of 76.8% and a viability, T/C [28] of 65.6%. For the same compound, the viability, T/C [9] was 41.3%, the viability, T/C [29] was 39.9% and the viability, T/C [10] was 56.6%. The viability, T/C [30] was 34.7%, the viability, T/C [31] was 49.8% and the viability, T/C [32] was 45.5%. The viability, T/C [11] was 64.7%, the viability, T/C [33] was 70.5% and the viability, T/C [12] was 76.8%. It also gave a viability, T/C [34] of 72.3%, a viability, T/C [35] of 70.6% and a viability, T/C [36] of 63.3%.
